Molecules are shown by their SMILES.

prolyl endopeptidase, sequence (P27028 21-705): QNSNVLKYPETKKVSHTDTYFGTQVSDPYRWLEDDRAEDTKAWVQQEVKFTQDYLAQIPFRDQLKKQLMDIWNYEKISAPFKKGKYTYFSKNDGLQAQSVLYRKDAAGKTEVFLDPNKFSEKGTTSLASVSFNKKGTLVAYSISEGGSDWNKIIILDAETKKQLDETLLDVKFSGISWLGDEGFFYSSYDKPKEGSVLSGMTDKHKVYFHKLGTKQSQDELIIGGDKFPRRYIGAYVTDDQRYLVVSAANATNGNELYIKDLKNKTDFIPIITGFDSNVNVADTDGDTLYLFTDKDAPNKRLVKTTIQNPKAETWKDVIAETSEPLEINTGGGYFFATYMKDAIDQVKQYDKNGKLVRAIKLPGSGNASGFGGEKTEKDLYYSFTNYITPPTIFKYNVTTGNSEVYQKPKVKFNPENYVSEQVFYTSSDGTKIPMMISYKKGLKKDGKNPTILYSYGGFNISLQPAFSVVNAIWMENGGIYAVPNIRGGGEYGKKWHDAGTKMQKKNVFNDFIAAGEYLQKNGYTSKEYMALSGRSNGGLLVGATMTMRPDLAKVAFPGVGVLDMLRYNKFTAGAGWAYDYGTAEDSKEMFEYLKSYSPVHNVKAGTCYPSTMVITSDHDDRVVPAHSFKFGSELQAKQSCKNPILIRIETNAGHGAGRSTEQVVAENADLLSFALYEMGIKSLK

For this assay, the target named is prolyl endopeptidase (Elizabethkingia meningoseptica, UniProt P27028). Description: Measurement of anti-prolyl endopeptidase activity (Z-glycyl-proline-β-naphthylamide substrate). Type of assay: biochemical. The following applies: amount for 50% inhibition, pH 7.0, 35° C., 10 minutes, absorbance at 410 nm. The procedure:
The method of Yoshimoto and Tsuru [T. Yoshimoto and D. Tsuru, Agric. Biol. Chem., 42, 2417 (1978)] was used to measured the anti-prolyl endopeptidase activities of several compounds of the present invention. A mixture of 0.0025M Z-glycyl-proline-β-naphthylamide (0.25 ml), 0.1M phosphate buffer (pH, 7.0; 0.99 ml) and a solution of a particular anti-prolyl endopeptidase compound (0.01 ml) was incubated in a test tube at 37° C. for 3 minutes. Thereafter, 0.1 ml of a solution of prolyl endopeptidase (0.2 U/ml) was added and the mixture was incubated at 35° C. for 10 minutes. After the reaction, 2.0 ml of Triton X-100 in 1M acetate buffer (pH, 4.0) was added to the reaction mixture so that the final concentration of the surfactant was 10%. The mixture was left at room temperature for 15 minutes and the absorbance (a) at 410 nm was measured.
A sample of a blind test was prepared by using the buffer instead of the anti-prolyl endopeptidase compound and its absorbance (b) was also measured. The percent inhibition of prolyl endopeptidase was calculated by the formula: […]
and the amount of a specific compound needed to achieve 50% inhibition (IC50) was determined.
With `CC(C)CC(OC(=O)CCCc1ccccc1)C(=O)N1CCCC1` (stereo not drawn) [Example 1, N-[2-(γ-phenyl)butyryloxy-4-methylvaleryl]pyrrolidine], the IC50 is 0.70 μg/test tube. As for `CC(C)C(OC(=O)CCCc1ccccc1)C(=O)N1CCCC1` (stereo not drawn) [Example 2, N-[2-(γ-phenyl)butyryloxy-3-methylbutyryl]pyrrolidine], the IC50 stood at 0.90 μg/test tube. In turn, `CCCCCCC(OC(=O)CCCc1ccccc1)C(=O)N1CCCC1` (stereo not drawn) [Example 3, N-[2-(γ-phenyl)butyryloxy-n-capryloyl]pyrrolidine] had an IC50 of 4.0 μg/test tube.
